Experimental data reported in patent publication US20180087023A1, “METHOD OF PRODUCING BIOPRODUCTS” (White Dog Labs, Inc., priority 2015, published 2018).

Experiments:
[1] = Single-stage extraction of 2% aqueous bioproduct solutions with extractant (Examples 1-9); type: physicochemical; conditions: for Raffinate Bioproduct conc. (%) / Extract Bioproduct conc. (%): 100 g of 2% aqueous solution mixed with 100 g extractant of 80% 1-butene + 20% DME; for Raffinate Bioproduct conc. (%): raffinate phase; for Extract Bioproduct conc. (%): pressure vessel, extract phase; for DC (bioproduct distribution coefficient): extract/raffinate, extractant 80% 1-butene + 20% DME, ambient temperature (Table 1); for Distribution coefficient, 100% DME: extractant 100% DME (Table 2)
Description: Extraction of various bioproducts with an extractant composed of 80% 1-butene and 20% dimethylether (DME) 100 grams (g) of aqueous solutions of various bioproducts were prepared. Bioproduct initial concentration was 2%. Each of these bioproduct aqueous solutions was extracted in a pressure vessel by mixing with 100 g of extractant composed of 80% 1-butene (the hydrocarbon) and 20% dimethylether (the oxygenated compound) at ambient temperature. The amount of formed extract and formed raffinate and the concentration (conc.) of the bioproduct in each were determined. Theses concentrations were used to calculate the bioproduct distribution coefficient (DC). Also determined was the concentration of DME in the raffinate. Table 2 compares the found distribution coefficients to those of extracting with an extractant composed of 100% DME.

[2] = Effect of DME/1-butene ratio in the extractant on n-butanol extraction (Example 10); type: physicochemical; conditions: after extracting 2% n-butanol solution, 1:1 w/w, room temperature
Description: Extractant to aqueous solution weight/weight ratio was 1 to 1. Distribution coefficients, extractant concentration in the raffinate and extraction yield (single stage extraction at the selected extractant/aqueous solution weight/weight ratio) were determined and are summarized in Table 3.

| Structure (SMILES) | Raffinate Bioproduct conc. (%) ([1]; ambient temperature) | Extract Bioproduct conc. (%) ([1]; ambient temperature) | DC (bioproduct distribution coefficient) [1] | Distribution coefficient, 100% DME [1] | Distribution coefficient, 20% DME + 80% 1-Butene ([1]; extractant 20% DME + 80% 1-butene (Table 2)) | Raffinate DME conc. (%) ([1]; DME in raffinate after extracting each 2% bioproduct solution with 80% 1-butene + 20% DME, ambient temperature) | Wt % Extractant in Raffinate [2] |
| --- | --- | --- | --- | --- | --- | --- | --- |
| CCCC(C)=O [2-Pentanone] | 0.22% | 1.89% | 8.45 | 5.82 |  |  |  |
| CCCC(=O)OC [Methyl Butyrate] | 0.034% | 2.12% | 61.1 | 20.73 | 61.14 |  |  |
| O=C(O)CCC(=O)O [Succinic Acid] | 1.66% | 0.22% | 0.13 | 1.01 |  |  |  |
| CCC(=O)O [Propionic Acid] | 0.92% | 1.09% | 1.18 | 2.27 |  |  |  |
| CCCC=O [Butanal] | 0.26% | 1.85% | 7.16 | 5.11 |  |  |  |
| O=C(O)CCCC(=O)O [Glutaric Acid] | 1.37% | 0.56% | 0.43 | 1.88 |  |  |  |
| COC [DME, dimethylether, reference compound] |  |  |  |  |  | 4.5% | 31.0% |
| O=C1CCCO1 [Gamma Butyrolactone] | 0.37% | 0.172% | 4.63 | 3.14 |  |  |  |
| O=Cc1ccco1 [Furfural] | 0.46% | 0.162% | 3.54 | 3.79 |  |  |  |
